Target: T1, MAGL (Homo sapiens, UniProt Q99685)
T1 sequence (Q99685 1-303): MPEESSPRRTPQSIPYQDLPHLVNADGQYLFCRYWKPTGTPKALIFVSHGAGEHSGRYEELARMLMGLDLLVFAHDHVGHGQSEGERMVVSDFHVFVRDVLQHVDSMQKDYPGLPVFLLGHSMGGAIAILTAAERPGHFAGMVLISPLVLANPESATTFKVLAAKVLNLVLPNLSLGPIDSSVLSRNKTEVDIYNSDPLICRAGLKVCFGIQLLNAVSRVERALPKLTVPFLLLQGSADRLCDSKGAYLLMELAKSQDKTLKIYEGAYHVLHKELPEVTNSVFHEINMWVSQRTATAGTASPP
Assay: 2-AG assay: MAGL inhibitory activity by hydrolysis of 2-arachidonoylglycerol to arachidonic acid, followed by mass spectrometry
Format: biochemical
Conditions: 8 μM 2-arachidonoylglycerol, 15 min preincubation and 30 min reaction at RT, arachidonic acid/d8-arachidonic acid ratio by MS
Method: Compounds of formula (I) were profiled for MAGL inhibitory activity by determining the enzymatic activity by following the hydrolysis of the natural substrate 2-arachidonoylglycerol (2-AG) resulting in arachidonic acid, which can be followed by mass spectrometry. This assay is hereinafter abbreviated “2-AG assay”.
The 2-AG assay was carried out in 384 well assay plates (PP, Greiner Cat #784201) in a total volume of 20 μL. Compound dilutions were made in 100% DMSO (VWR Chemicals 23500.297) in a polypropylene plate in 3-fold dilution steps to give a final concentration range in the assay from 12.5 μM to […]. 0.25 μL compound dilutions (100% DMSO) were added to 9 μL MAGL in assay buffer (50 mM TRIS (GIBCO, 15567-027), 1 mM EDTA (Fluka, 03690-100 mL), 0.01% (v/v) Tween. After shaking, the plate was incubated for 15 min at RT. To start the reaction, 10 μL 2-arachidonoylglycerol in assay buffer was added. The final concentrations in the assay was […] and 8 μM 2-arachidonoylglyerol. After shaking and 30 min incubation at RT, the reaction was quenched by the addition of 40 μL of ACN containing 4 μM of d8-arachidonic acid. The amount of arachidonic acid was traced by an online SPE system (Agilent Rapidfire) coupled to a triple quadrupole mass spectrometer (Agilent 6460). A C18 SPE cartridge (G9205A) was used in an ACN/water liquid setup. The mass spectrometer was operated in negative electrospray mode following the mass transitions 303.1→259.1 for arachidonic acid and 311.1→267.0 for d8-arachidonic acid. The activity of the compounds was calculated based on the ratio of intensities [arachidonic acid/d8-arachidonic acid].

Going from O=C1CO[C@H]2CCN(C(=O)N3CC(c4ccc(Oc5ccccc5)cc4)C3)C[C@H]2N1 [Example 1, (4aR,8aS)-6-(3-(4-Phenoxyphenyl)azetidine-1-carbonyl)hexahydro-2H-pyrido[4,3-b][1,4]oxazin-3(4H)-one] to O=C1CO[C@H]2CCN(C(=O)N3CC(c4ccc(Oc5cccnc5)cc4)C3)C[C@H]2N1 [Example 10, (+)-(4aR,8aS)-6-[3-[4-(3-Pyridyloxy)phenyl]azetidine-1-carbonyl]-4,4a,5,7,8,8a-hexahydropyrido[4,3-b][1,4]oxazin-3-one], the IC50 rises from 0.2 nM to 2.3 nM (11-fold).

Compared with O=C1CO[C@H]2CCN(C(=O)N3CC(c4ccc(Oc5ccccc5Cl)cc4)C3)C[C@H]2N1 [Example 2, (4aR,8aS)-6-[3-[4-(2-Chlorophenoxy)phenyl]azetidine-1-carbonyl]-4,4a,5,7,8,8a-hexahydropyrido[4,3-b][1,4]oxazin-3-one], O=C1CO[C@H]2CCN(C(=O)N3CC(c4ccc(Oc5ccccc5F)cc4)C3)C[C@H]2N1 [Example 18, (+)-(4aR,8aS)-6-[3-[4-(2-fluorophenoxy)phenyl]azetidine-1-carbonyl]-4,4a,5,7,8,8a-hexahydropyrido[4,3-b][1,4]oxazin-3-one] is 2.5-fold higher in IC50: 0.02 nM for the first, 0.05 nM for the second.

Going from O=C1CO[C@H]2CCN(C(=O)N3CC(c4ccc(Oc5ncccn5)cc4)C3)C[C@H]2N1 [Example 3, (4aR,8aS)-6-[3-(4-Pyrimidin-2-yloxyphenyl)azetidine-1-carbonyl]-4,4a,5,7,8,8a-hexahydropyrido[4,3-b][1,4]oxazin-3-one] to Cc1ccnc(Oc2ccc(C3CN(C(=O)N4CC[C@@H]5OCC(=O)N[C@@H]5C4)C3)cc2)n1 [Example 5, (+)-(4aR,8aS)-6-[3-[4-(4-Methylpyrimidin-2-yl)oxyphenyl]azetidine-1-carbonyl]-4,4a,5,7,8,8a-hexahydropyrido[4,3-b][1,4]oxazin-3-one], the IC50 falls from 75.4 nM to 23.8 nM (3.2-fold). The second is the more potent here.

Compared with Cc1ncccc1Oc1ccc(C2CN(C(=O)N3CC[C@@H]4OCC(=O)N[C@@H]4C3)C2)cc1 [Example 4, (4aR,8aS)-6-[3-[4-[(2-Methyl-3-pyridyl)oxy]phenyl]azetidine-1-carbonyl]-4,4a,5,7,8,8a-hexahydropyrido[4,3-b][1,4]oxazin-3-one], Cc1ccncc1Oc1ccc(C2CN(C(=O)N3CC[C@@H]4OCC(=O)N[C@@H]4C3)C2)cc1 [Example 7, (+)-(4aR,8aS)-6-[3-[4-[(4-Methyl-3-pyridyl)oxy]phenyl]azetidine-1-carbonyl]-4,4a,5,7,8,8a-hexahydropyrido[4,3-b][1,4]oxazin-3-one] is 5-fold lower in IC50: 2.5 nM for the first, 0.5 nM for the second.

Compared with O=C1CO[C@H]2CCN(C(=O)N3CC(c4ccc(Oc5cccnn5)cc4)C3)C[C@H]2N1 [Example 6, (+)-(4aR,8aS)-6-[3-(4-Pyridazin-3-yloxyphenyl)azetidine-1-carbonyl]-4,4a,5,7,8,8a-hexahydropyrido[4,3-b][1,4]oxazin-3-one], Cc1ccnnc1Oc1ccc(C2CN(C(=O)N3CC[C@@H]4OCC(=O)N[C@@H]4C3)C2)cc1 [Example 11, (+)-(4aR,8aS)-6-[3-[4-(4-Methylpyridazin-3-yl)oxyphenyl]azetidine-1-carbonyl]-4,4a,5,7,8,8a-hexahydropyrido[4,3-b][1,4]oxazin-3-one] is 3.1-fold lower in IC50: 133 nM for the first, 42.9 nM for the second. The second is the more potent here.

Compared with O=C1CO[C@H]2CCN(C(=O)N3CC(c4ccc(Oc5cncc(F)c5)cc4)C3)C[C@H]2N1 [Example 8, (+)-(4aR,8aS)-6-[3-[4-[(5-Fluoro-3-pyridyl)oxy]phenyl]azetidine-1-carbonyl]-4,4a,5,7,8,8a-hexahydropyrido[4,3-b][1,4]oxazin-3-one], O=C1CO[C@H]2CCN(C(=O)N3CC(c4ccc(Oc5cncc(Cl)c5)cc4)C3)C[C@H]2N1 [Example 9, (+)-(4aR,8aS)-6-[3-[4-[(5-Chloro-3-pyridyl)oxy]phenyl]azetidine-1-carbonyl]-4,4a,5,7,8,8a-hexahydropyrido[4,3-b][1,4]oxazin-3-one] is 4.8-fold lower in IC50: 4.3 nM for the first, 0.9 nM for the second.

First: O=C1CO[C@H]2CCN(C(=O)N3CC(c4ccc(Oc5ccnnc5Cl)cc4)C3)C[C@H]2N1 [Example 12, (+)-(4aR,8aS)-6-[3-[4-(3-Chloropyridazin-4-yl)oxyphenyl]azetidine-1-carbonyl]-4,4a,5,7,8,8a-hexahydropyrido[4,3-b][1,4]oxazin-3-one]
Second: O=C1CO[C@H]2CCN(C(=O)N3CC(c4ccc(Oc5ccnc(Cl)n5)cc4)C3)C[C@H]2N1 [Example 24, (+)-(4aR,8aS)-6-[3-[4-(2-Chloropyrimidin-4-yl)oxyphenyl]azetidine-1-carbonyl]-4,4a,5,7,8,8a-hexahydropyrido[4,3-b][1,4]oxazin-3-one]
The IC50 of the first is 590-fold higher: 23.5 nM for the first, 0.04 nM for the second. The second is the more potent here.

Going from COc1ccnc(Oc2ccc(C3CN(C(=O)N4CC[C@@H]5OCC(=O)N[C@@H]5C4)C3)cc2)n1 [Example 13, (+)-(4aR,8aS)-6-[3-[4-(4-Methoxypyrimidin-2-yl)oxyphenyl]azetidine-1-carbonyl]-4,4a,5,7,8,8a-hexahydropyrido[4,3-b][1,4]oxazin-3-one] to O=C1CO[C@H]2CCN(C(=O)N3CC(c4ccc(Oc5nccc(C6CC6)n5)cc4)C3)C[C@H]2N1 [Example 25, (+)-(4aR,8aS)-6-[3-[4-(4-Cyclopropylpyrimidin-2-yl)oxyphenyl]azetidine-1-carbonyl]-4,4a,5,7,8,8a-hexahydropyrido[4,3-b][1,4]oxazin-3-one], the IC50 falls from 12.7 nM to 4.2 nM (3-fold). The second is the more potent here.

First: O=C1CO[C@H]2CCN(C(=O)N3CC(c4ccc(Oc5nccc(C(F)(F)F)n5)cc4)C3)C[C@H]2N1 [Example 14, (+)-(4aR,8aS)-6-[3-[4-[4-(Trifluoromethyl)pyrimidin-2-yl]oxyphenyl]azetidine-1-carbonyl]-4,4a,5,7,8,8a-hexahydropyrido[4,3-b][1,4]oxazin-3-one]
Second: O=C1CO[C@H]2CCN(C(=O)N3CC(c4ccc(Oc5cccc(C(F)(F)F)c5)cc4)C3)C[C@H]2N1 [Example 22, (+)-(4aR,8aS)-6-[3-[4-[3-(Trifluoromethyl)phenoxy]phenyl]azetidine-1-carbonyl]-4,4a,5,7,8,8a-hexahydropyrido[4,3-b][1,4]oxazin-3-one]
The IC50 of the first is 220-fold higher: 13.4 nM for the first, 0.06 nM for the second. The second is the more potent here.

Compared with O=C1CO[C@H]2CCN(C(=O)N3CC(c4ccc(Oc5cccc(F)c5)cc4)C3)C[C@H]2N1 [Example 15, (+)-(4aR,8aS)-6-[3-[4-(3-Fluorophenoxy)phenyl]azetidine-1-carbonyl]-4,4a,5,7,8,8a-hexahydropyrido[4,3-b][1,4]oxazin-3-one], O=C1CO[C@H]2CCN(C(=O)N3CC(c4ccc(Oc5cccc(Cl)c5)cc4)C3)C[C@H]2N1 [Example 20, (+)-(4aR,8aS)-6-[3-[4-(3-Chlorophenoxy)phenyl]azetidine-1-carbonyl]-4,4a,5,7,8,8a-hexahydropyrido[4,3-b][1,4]oxazin-3-one] is 1.8-fold lower in IC50: 0.11 nM for the first, 0.06 nM for the second. The second is the more potent here.

Going from O=C1CO[C@H]2CCN(C(=O)N3CC(c4ccc(Oc5ccc(F)cc5)cc4)C3)C[C@H]2N1 [Example 16, (+)-(4aR,8aS)-6-[3-[4-(4-Fluorophenoxy)phenyl]azetidine-1-carbonyl]-4,4a,5,7,8,8a-hexahydropyrido[4,3-b][1,4]oxazin-3-one] to O=C1CO[C@H]2CCN(C(=O)N3CC(c4ccc(Oc5ccc(Cl)cc5)cc4)C3)C[C@H]2N1 [Example 19, (+)-(4aR,8aS)-6-[3-[4-(4-Chlorophenoxy)phenyl]azetidine-1-carbonyl]-4,4a,5,7,8,8a-hexahydropyrido[4,3-b][1,4]oxazin-3-one], the IC50 falls from 0.05 nM to 0.01 nM (5-fold). The second is the more potent here.

Compared with O=C1CO[C@H]2CCN(C(=O)N3CC(c4ccc(Oc5ccc(F)cc5F)cc4)C3)C[C@H]2N1 [Example 17, (+)-(4aR,8aS)-6-[3-[4-(2,4-Difluorophenoxy)phenyl]azetidine-1-carbonyl]-4,4a,5,7,8,8a-hexahydropyrido[4,3-b][1,4]oxazin-3-one], Cc1ccccc1Oc1ccc(C2CN(C(=O)N3CC[C@@H]4OCC(=O)N[C@@H]4C3)C2)cc1 [Example 21, (+)-(4aR,8aS)-6-[3-[4-(2-Methylphenoxy)phenyl]azetidine-1-carbonyl]-4,4a,5,7,8,8a-hexahydropyrido[4,3-b][1,4]oxazin-3-one] is 3.3-fold lower in IC50: 0.1 nM for the first, 0.03 nM for the second.

For N#Cc1ccccc1Oc1ccc(C2CN(C(=O)N3CC[C@@H]4OCC(=O)N[C@@H]4C3)C2)cc1 [Example 23, (+)-2-[4-[1-[(4aR,8aS)-3-Oxo-4,4a,5,7,8,8a-hexahydropyrido[4,3-b][1,4]oxazine-6-carbonyl]azetidin-3-yl]phenoxy]benzonitrile], the IC50 was 0.2 nM.
